From paper PMC3703888, “Integration of Different “-omics” Technologies Identifies Inhibition of the IGF1R-Akt-mTOR Signaling Cascade Involved in the Cytotoxic Effect of Shikonin against Leukemia Cells” (Evidence-based Complementary and Alternative Medicine : eCAM, 2013)
“Also recorded” adds a separate entry of the source.

Columns and labels:
U937 leukemia cells = assay: Resazurin reduction assay (cytotoxicity); type: cell-based; settings: Homo sapiens, U-937, 24 h treatment, read-out: IC50 (inhibition of U937 proliferation by 50%)
Description: Resazurin reduction assay was performed to assess cytotoxicity of shikonin toward U937 cells. The assay is based on reduction of the indicator dye, resazurin, to the highly fluorescent resorufin by viable cells. Nonviable cells rapidly lose the metabolic capacity to reduce resazurin and thus produce no fluorescent signal. Briefly, aliquots of 2 × 10^4 U937 cells per well were seeded in 96-well plates in a total volume of 100 μL. Shikonin was immediately added in varying concentrations in an additional 100 μL of culture medium to obtain a total volume of 200 μL/well. After 24 h, 20 μL resazurin (Sigma-Aldrich, Germany) 0.01% w/v in ddH2O was added to each well and the plates were incubated at 37°C for 4 h. Fluorescence was measured on an Infinite M2000 Pro plate reader (Tecan, Germany) using an excitation wavelength of 544 nm and an emission wavelength of 590 nm. Each assay was done at least two times, with six replicates each. The viability was evaluated based on a comparison with untreated cells. IC50 value represents the shikonin concentrations required to inhibit 50% of cell proliferation and was calculated from a calibration curve by linear regression using Microsoft Excel.

p-ribosomal protein S6 = assay: FlowCellect PI3K-mTOR signaling cascade assay (flow cytometry), p-ribosomal protein S6; type: cell-based; settings: U937 cells, 0.3 μM shikonin, 24 h
Excerpt: The FlowCellect PI3K-mTOR signaling cascade assay kit (Merck Millipore, Germany) was used to analyze the effect of shikonin on the PI3K-mTOR signaling pathway. The assay is based on two directly conjugated phospho-specific signaling antibodies against phosphorylated Akt and phosphorylated ribosomal S6 protein, which are both important signaling nodes of the mTOR cascade. The phosphorylation of Akt is indicative of the upstream PI3K signaling, marking the cells initiation into proliferation or cell survival. Phosphorylated-ribosomal S6 protein is indicative of downstream mTOR and p70S6K signaling leading to protein translation. The assay was performed according to the manufacture's protocol. Briefly, 1.5 × 10^6 U937 cells were treated with 0.3 μM shikonin or DMSO solvent control and incubated for 24 h. Subsequently, cells were fixed on ice for 20 min using the supplied fixation buffer. […] Subsequently, cells were measured in a LSR-Fortessa FACS analyzer (Becton-Dickinson, Germany) and shikonin fluorescence was compensated for the respective channels. For each sample, 1 × 10^4 cells were counted. The PerCP signal was measured with 488 nm excitation and detected using a 670/30 nm bandpass filter. The Alexa Fluor 488 signal was analyzed with 488 nm excitation and detected using a 530/30 nm bandpass filter. […] Cytographs were analyzed using FlowJo software (Celeza, Switzerland). […]

Question: CC(C)=CC[C@@H](O)C1=CC(=O)c2c(O)ccc(O)c2C1=O [shikonin] was tested. Which IC50 (U937 leukemia cells) did it give?
Answer: 300 nM

Question: What about the “Phosphorylation of ribosomal protein S6” value (p-ribosomal protein S6) of the same compound?
Answer: remained almost unchanged; also recorded: no effect
